Measurements as given in US20240115569A1, “METHODS FOR BLOCKING HER2 SIGNALING FOR TREATING PULMONARY FIBROSIS” (CEDARS-SINAI MEDICAL CENTER, priority 2021, published 2024).

What was measured:
IPF = IPF patients; cited from earlier work
human lung fibroblasts [1] = assay: Fibroblast invasion assay (BioCoat Matrigel Invasion Chamber); format: cell-based; details: 24 hours, PDGF-BB chemoattractant
Description: (§1) Fibroblast migration and invasion assays were performed as previously described (Geng et al., 2019; L1 et al., 2011). In brief, fibroblasts were loaded into the top chamber of a Corning BioCoat Control cell culture insert containing a polycarbonate membrane with 8.0 µm pores (for migration) or a BioCoat Matrigel Invasion Chamber (BD Sciences; for invasion). All other settings were the same for the cell migration assay as for the cell invasion assay.
(§2) PDGF-BB (10 ng/ml, Peprotech) was used as a chemoattractant in the bottom chamber. After 24 hours culture at 37° C. with 5% CO2, invasive cells that had passed through the matrigel layer and clung to the bottom of the insert membrane were determined as invasive fibroblasts. Cells remaining in the upper chamber were defined as non-invasive fibroblasts. For quantification of the migration and invasion indices, the membrane filters containing cells were fixed and stained with the Protocol Hema 3 stain set (Thermo Fisher Scientific) and counted in 5 randomly chosen fields per filter from triplicate filters per sample at ×40 magnification. […] The cell migration or the cell invasion index was calculated as the number of cells attached to the bottom of control or Matrigel-coated membranes after 24 hours, normalized to respective control lung fibroblasts.

human lung fibroblasts [2] = assay: Fibroblast migration assay (BioCoat control insert); format: cell-based; details: 24 hours, PDGF-BB chemoattractant
Description: as §1, §2

[3] = tested on: NSG mice injected with SEMA7A high IPF fibroblasts; assay: Humanized SCID mouse model of IPF; format: in vivo; details: assessed on day 63
Description: Humanized SCID mouse model of IPF was generated as previously reported (Trujillo et al., 2010). Female NOD-scid-IL2Rγc−/− (NSG) mice (6 to 8 weeks old) were purchased from the Jackson Laboratory. The NSG mice received single-cell preparations of SEMA7A high and negative IPF lung fibroblasts (0.5×10^6 cells/mouse) via tail vein injection. […] For the anti-ERBB2 antibody studies, mice were injected with IgG1 (InVivoPlus human IgG1 isotype control, Bio X Cell) or anti-HER2 (Pertuzumab, kindly provided by Genentech) twice per week, 100 μg/mouse from day 35 to 63. Lung fibrosis was assessed on day 63 after fibroblast transfer. The left lobe was used for histology and right lobes were used for hydroxyproline assay after right ventricle perfusion to clear the blood in lungs.

IPF lung fibroblasts = assay: qRT-PCR of genes specific to invasive or non-invasive fibroblasts; format: cell-based, human; details: IPF lung fibroblasts after Lapatinib treatment
Description: Small interfering RNA (siRNA) knockdown assays were performed using Lipofectamin RNAiMAX Transfection Reagent following the manufacturer's protocol (Thermo Fisher Scientific). Commercial si-RNA used were listed: si-FOXF1 (Santa Cruz Biotechnology, sc-60655), si-CREBRF (Santa Cruz Biotechnology, sc-91839), si-TSC22D1 (Thermo Fisher Scientific, 16708), si-MXI1 (Santa Cruz Biotechnology, sc-35835), si-KLF9 (Santa Cruz Biotechnology, sc-37716), si-NFE2L2 (Santa Cruz Biotechnology, sc-37030), si-HMGA2 (Santa Cruz Biotechnology, sc-37994) si-DPF3 (Santa Cruz Biotechnology, sc-92150) and si-LIN00152 (Dharmacon, SMARTpool: Lincode CYTOR siRNA). Si-FENDRR were synthesized by Integrated DNA Technologies (IDT) (Table 1). RNA was isolated using RNeasy Mini kit (QIAGEN) following the manufacturer's protocol. […] Reverse Transcriptase (Progema) was used for cDNA synthesis. Gene expression was measured relative to the endogenous reference gene GAPDH using the comparative ACT method. The primer sequences used were listed (Table 1).

FOXF1 = assay: Western blot of FOXF1 in IPF lung fibroblasts; format: cell-based, human; details: increasing concentration
SEMA7A = assay: Western blot of SEMA7A in IPF lung fibroblasts; format: cell-based, human; details: increasing concentration
C57BL/6J mice = assay: Bleomycin-induced lung fibrosis; format: in vivo, mouse; details: 1.25 U/kg bleomycin intratracheal; gavaged every day; 21 days; vs vehicle; trichrome and hydroxyproline
Description: Control animals received saline alone. The tracheostomy site was sutured, and the animals were allowed to recover. […] Mice were euthanized 21 days after bleomycin treatment, and lung tissues were collected for experiments.

fibroblasts = assay: Calcein AM cell viability assay; format: cell-based, human; details: Lapatinib treated cells for 24 hours
Description: Cell growth rate of si-CTL and si-FENDRR fibroblasts were measured by IncuCyte ZOOM Live Cell Analysis System (Essen BioScience). The viability of lapatinib-treated fibroblasts or control fibroblasts was examined by Calcein AM Cell Viability Assay Kit (Trevigen).

SEMA7A, F3, and ITGA6 = assay: Flow cytometry of cell surface markers of invasive fibroblasts; format: cell-based, human; details: IPF lung fibroblasts after Lapatinib treatment
Description: Briefly, cells were resuspended in Hank's balanced saline solution supplemented with 2% FBS, 10 mM […] , 0.1 mM EDTA, Antibiotic-Antimycotic. […] 4',6-diamidino-2-phenylindole (DA-PI) was used to discriminate dead cells.

[4] = different doses of Lapatinib or DMSO

For `Cc1ccc(=O)n(-c2ccccc2)c1` [pirfenidone], the “lung function / fibrosis” value (IPF) is given as “neither of these agents improves lung function or reduces fibrosis” and the “rate of decline in the forced vital capacity” value (IPF) is given as “reduce the rate of decline in the forced vital capacity”.

For “Pertuzumab: humanized monoclonal antibody that binds to the extracellular domain II of HER2”, the fibroblast invasion (human lung fibroblasts [1]; Pertuzumab or IgG1) was “significantly reduced fibroblast migration and invasion”, the fibroblast migration (human lung fibroblasts [2]; Pertuzumab or IgG1) was “significantly reduced fibroblast migration and invasion” and the lung fibrosis ([3]; 100 μg/mouse twice per week from day 35 to 63, vs IgG1) was “significantly decreased lung fibrosis”.

In the case of `CS(=O)(=O)CCNCc1ccc(-c2ccc3ncnc(Nc4ccc(OCc5cccc(F)c5)c(Cl)c4)c3c2)o1` [Lapatinib], the “RNA levels of other representative genes specific to invasive or non-invasive fibroblasts” value (IPF lung fibroblasts) is reported as “reversed to a non-invasive state”, the “total protein levels of FOXF1” value (FOXF1) is reported as “increased” and the fibroblast invasion (human lung fibroblasts [1]; [4]) is reported as “inhibited fibroblast migration and invasion in a dose dependent manner”. The fibroblast migration (human lung fibroblasts [2]; [4]) was “inhibited fibroblast migration and invasion in a dose dependent manner”, the “total protein levels of SEMA7A” value (SEMA7A) was “decreased” and the bleomycin-induced lung fibrosis (C57BL/6J mice) was “blunted bleomycin-induced lung fibrosis”. For the same molecule, the fibroblast viability (fibroblasts) was “no effect on fibroblast viability”, the lung fibrosis ([3]; 50 mg/kg every other day from day 35 to day 63, vs vehicle, trichrome and hydroxyproline) was “significantly decreased lung fibrosis” and the “cell surface expression of SEMA7A, F3, and ITGA6” value (SEMA7A, F3, and ITGA6) was “decreased protein levels”.

For `COC(=O)c1ccc2c(c1)NC(=O)/C2=C(\Nc1ccc(N(C)C(=O)CN2CCN(C)CC2)cc1)c1ccccc1` [nintedanib], the “lung function / fibrosis” value (IPF) is listed as “neither of these agents improves lung function or reduces fibrosis” and the “rate of decline in the forced vital capacity” value (IPF) is listed as “reduce the rate of decline in the forced vital capacity”.
